Legend:
Endothelial lipase (EL) = Endothelial lipase (EL) (Homo sapiens (Human), UniProt Q9Y5X9); assay: EL assay: endothelial lipase activity with fluorescent substrate A10070 in DMPG vesicles; format: biochemical
Method in brief: (§1)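 Compounds were preincubated with enzyme for 30 min at 37° C before FRET-substrate vesicles (A10070 in DMPG, 0.11 mole fraction) were added. Reaction rates were obtained from the 300–900 sec slope of fluorescence at 490/530 nm.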

hepatic lipase (HL) = hepatic lipase (HL) (Homo sapiens (Human), UniProt P11150); assay: HL assay: hepatic lipase activity with fluorescent substrate A10070 in DMPG vesicles; format: biochemical
Chain of hepatic lipase (HL) (P11150 23-499, species assumed): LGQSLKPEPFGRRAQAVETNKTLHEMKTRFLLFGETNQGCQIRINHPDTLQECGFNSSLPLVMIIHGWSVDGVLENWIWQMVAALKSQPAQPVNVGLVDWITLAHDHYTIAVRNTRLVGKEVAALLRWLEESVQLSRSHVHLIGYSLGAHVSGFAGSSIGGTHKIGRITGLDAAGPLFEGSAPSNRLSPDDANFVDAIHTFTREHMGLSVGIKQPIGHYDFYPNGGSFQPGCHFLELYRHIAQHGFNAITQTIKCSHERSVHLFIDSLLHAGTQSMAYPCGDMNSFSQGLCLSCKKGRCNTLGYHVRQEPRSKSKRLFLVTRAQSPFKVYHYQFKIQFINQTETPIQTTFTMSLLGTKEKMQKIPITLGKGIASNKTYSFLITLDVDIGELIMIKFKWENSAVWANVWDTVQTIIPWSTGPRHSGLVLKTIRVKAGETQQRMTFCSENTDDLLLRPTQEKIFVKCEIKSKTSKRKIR
Method in brief: as §1

Chain of Endothelial lipase (EL) (Q9Y5X9 21-500): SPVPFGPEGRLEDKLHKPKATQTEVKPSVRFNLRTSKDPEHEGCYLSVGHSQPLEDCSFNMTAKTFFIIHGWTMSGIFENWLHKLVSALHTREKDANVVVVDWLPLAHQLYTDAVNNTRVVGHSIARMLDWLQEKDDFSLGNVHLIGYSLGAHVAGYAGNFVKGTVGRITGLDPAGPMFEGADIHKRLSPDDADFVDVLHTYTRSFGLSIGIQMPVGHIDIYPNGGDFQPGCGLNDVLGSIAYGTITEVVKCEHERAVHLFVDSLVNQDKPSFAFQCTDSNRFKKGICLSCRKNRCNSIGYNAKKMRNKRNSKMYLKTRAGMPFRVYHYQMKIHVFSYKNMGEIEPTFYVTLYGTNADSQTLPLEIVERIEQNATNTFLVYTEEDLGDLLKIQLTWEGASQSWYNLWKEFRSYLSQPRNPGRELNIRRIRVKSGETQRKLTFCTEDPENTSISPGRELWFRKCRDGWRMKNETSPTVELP

Row | Compound | IC50 (Endothelial lipase (EL)) | IC50 (hepatic lipase (HL))
1 | COCCNC(=O)c1ccc(-c2ccc3nc(C(C(=O)NCCS(N)(=O)=O)S(=O)(=O)Cc4ccc(OC(F)(F)F)cc4)sc3c2)cc1 (stereo not shown) [Example B282, N-(2-methoxyethyl)-4-(2-{[(2-sulfamoylethyl)car-bamoyl][4-(trifluoromethoxy)phen-yl]methanesulfonylmethyl}-1,3-benzothiazol-6-yl)ben-zamide] | 2.6 nM | 306 nM
2 | NS(=O)(=O)CCNC(=O)C(c1nc2ccc(-c3ccc(C(=O)N4CCOCC4)cc3)cc2s1)S(=O)(=O)CC1CC1 (stereo not shown) [Example B283, 2-cyclopropylmethane-sulfonyl-2-{6-[4-(morpholine-4-carbonyl)phenyl]-1,3-benzothiazol-2-yl}-N-(2-sulfamoylethyl)acetamide] | 53.8 nM | 365 nM
3 | NS(=O)(=O)CCNC(=O)C(c1nc2ccc(-c3ccccc3)cc2s1)S(=O)(=O)CCC(F)(F)F (stereo not shown) [Example B284, 2-(6-phenyl-1,3-benzothiazol-2-yl)-N-(2-sulfamoylethyl)-2-(3,3,3-trifluoropropanesulfonyl)a-cetamide] | 6.8 nM | 2.6 nM
4 | COCc1ccc(-c2ccc3nc(C(C(=O)NCCS(N)(=O)=O)S(=O)(=O)Cc4ccc(OC(F)(F)F)cc4)sc3c2)cc1 (stereo not shown) [Example B285, 2-{6-[4-(methoxymethyl)phenyl]-1,3-benzothiazol-2-yl}-N-(2-sulfamoylethyl)-2-{[4-(trifluoromethoxy)phen-yl]methanesulfonyl}a-cetamide] | 5.4 nM | 126 nM
5 | COCc1ccc(-c2ccc3nc(C(C(=O)NCCS(N)(=O)=O)S(=O)(=O)CC4CC4)sc3c2)cc1 (stereo not shown) [Example B286, 2-cyclopropylmethane-sulfonyl-2-{6-[4-(methoxymethyl)phenyl]-1,3-benzothiazol-2-yl}-N-(2-sulfamoylethyl)a-cetamide] | 3.9 nM | 55.5 nM
6 | CC(=O)Nc1ccc(-c2ccc3nc(C(C(=O)NCCS(N)(=O)=O)S(=O)(=O)Cc4ccc(C(F)(F)F)cc4)sc3c2)cc1 (stereo not shown) [Example B287, 2-[6-(4-acetamidophenyl)-1,3-benzothiazol-2-yl]-N-(2-sulfamoylethyl)-2-{[4-(trifluoromethyl)phen-yl]methanesulfonyl}a-cetamide] | 7 nM | 90 nM
7 | COCCN(C)C(=O)c1ccc(-c2ccc3nc(C(C(=O)NCCS(N)(=O)=O)S(=O)(=O)Cc4ccc(C(F)(F)F)cc4)sc3c2)cc1 (stereo not shown) [Example B288, N-(2-methoxyethyl)-N-methyl-4-(2-{[(2-sulfamoylethyl)carbamoyl][4-(trifluoromethyl)phen-yl]methanesulfonylmethyl}-1,3-benzothiazol-6-yl)ben-zamide] | 0.8 nM | 124 nM
8 | COCCN(C)C(=O)c1ccc(-c2ccc3nc(C(C(=O)NCCS(N)(=O)=O)S(=O)(=O)Cc4ccc(OC(F)(F)F)cc4)sc3c2)cc1 (stereo not shown) [Example B289, N-(2-methoxyethyl)-N-methyl-4-(2-{[(2-sulfamoyl-ethyl)carbamoyl][4-(trifluoromethoxy)phen-yl]methanesulfonyl-methyl}-1,3-benzothiazol-6-yl)benzamide] | 3.1 nM | 21.7 nM
9 | COCCN(C)C(=O)c1ccc(-c2ccc3nc(C(C(=O)NCCS(N)(=O)=O)S(=O)(=O)CCC(F)(F)F)sc3c2)cc1 (stereo not shown) [Example B290, N-(2-methoxyethyl)-N-methyl-4-(2-{[(2-sulfa-moylethyl)carbamoyl](3,3,3-trifluoropropane-sulfonyl)methyl}-1,3-benzothiazol-6-yl)ben-zamide] | 12.1 nM | 114 nM
10 | COCCN(C)C(=O)c1ccc(-c2ccc3nc(C(C(=O)NCCS(N)(=O)=O)S(=O)(=O)CC4CC4)sc3c2)cc1 (stereo not shown) [Example B291, 4-(2-{cyclopropylmethane-sulfonyl[(2-sulfamoyl-ethyl)carbamoyl]methyl}-1,3-benzothiazol-6-yl)-N-(2-methoxyethyl)-N-methylbenzamide] | 0.7 nM | 35.2 nM
11 | COCCNC(=O)c1ccc(-c2ccc3nc(C(C(=O)NCCS(N)(=O)=O)S(=O)(=O)Cc4ccc(Cl)c(Cl)c4)sc3c2)cc1 (stereo not shown) [Example B292, 4-{2-[(3,4-dichlorophen-yl)methanesulfonyl[(2-sulfa-moylethyl)carbamoyl]meth-yl]-1,3-benzothiazol-6-yl}-N-(2-methoxyethyl)ben-zamide] | 20.2 nM | 112 nM
12 | NS(=O)(=O)CCNC(=O)C(c1nc2ccc(-c3ccc(C(=O)N4CCOCC4)cc3)cc2s1)S(=O)(=O)Cc1ccc(C(F)(F)F)cc1 (stereo not shown) [Example B293, 2-{6-[4-(morpholine-4-carbonyl)phenyl]-1,3-benzothiazol-2-yl}-N-(2-sulfamoylethyl)-2-{[4-(trifluoromethyl)phen-yl]methanesulfonyl}a-cetamide] | 146 nM | 328 nM
13 | COCCNC(=O)c1ccc(-c2ccc3nc(C(C(=O)NCCS(N)(=O)=O)S(=O)(=O)Cc4cc(Cl)cc(Cl)c4)sc3c2)cc1 (stereo not shown) [Example B295, 4-{2-[(3,5-dichlorophen-yl)methanesulfonyl[(2-sulfa-moylethyl)carbamoyl]meth-yl]-1,3-benzothiazol-6-yl}-N-(2-methoxyethyl)ben-zamide] | 20.9 nM | 140 nM
14 | NS(=O)(=O)CCNC(=O)C(c1nc2ccc(-c3ccc(C(=O)N4CCOCC4)cc3)cc2s1)S(=O)(=O)Cc1ccc(F)cc1 (stereo not shown) [Example B296, 2-[(4-fluorophenyl)methanesulfonyl]-2-{6-[4-(morpholine-4-carbon-yl)phenyl]-1,3-benzothiazol-2-yl}-N-(2-sulfamoyleth-yl)acetamide] | 2.9 nM | 267 nM
15 | NS(=O)(=O)CCNC(=O)C(c1nc2ccc(-c3ccc(C(=O)N4CCOCC4)cc3)cc2s1)S(=O)(=O)Cc1ccc(Cl)c(Cl)c1 (stereo not shown) [Example B297, 2-[(3,4-dichlorophen-yl)methanesulfonyl]-2-{6-[4-(morpholine-4-carbon-yl)phenyl]-1,3-benzothiazol-2-yl}-N-(2-sulfamoylethyl)a-cetamide] | 5.3 nM | 556 nM
16 | COC1CN(C(=O)c2ccc(-c3ccc4nc(C(C(=O)NCCS(N)(=O)=O)S(=O)(=O)Cc5ccc(C(F)(F)F)cc5)sc4c3)cc2)C1 (stereo not shown) [Example B299] | 5.6 nM | 74.2 nM
17 | COC1CN(C(=O)c2ccc(-c3ccc4nc(C(C(=O)NCCS(N)(=O)=O)S(=O)(=O)Cc5ccc(OC(F)(F)F)cc5)sc4c3)cc2)C1 (stereo not shown) [Example B300, 2-{6-[4-(3-methoxy-azetidine-1-carbonyl)phen-yl]-1,3-benzothiazol-2-yl}-N-(2-sulfamoyl-ethyl)-2-{[4-(trifluoro-methoxy)phenyl]methane-sulfonyl}acetamide] | 5.5 nM | 85.1 nM
18 | COC1CN(C(=O)c2ccc(-c3ccc4nc(C(C(=O)NCCS(N)(=O)=O)S(=O)(=O)CCC(F)(F)F)sc4c3)cc2)C1 (stereo not shown) [Example B301, 2-{6-[4-(3-methoxy-azetidine-1-carbonyl)phen-yl]-1,3-benzothiazol-2-yl}-N-(2-sulfamoyl-ethyl)-2-(3,3,3-trifluoro-propanesulfonyl)acetamide] | 7.8 nM | 113 nM
19 | COC1CN(C(=O)c2ccc(-c3ccc4nc(C(C(=O)NCCS(N)(=O)=O)S(=O)(=O)Cc5ccc(F)cc5)sc4c3)cc2)C1 (stereo not shown) [Example B302, 2-[(4-fluorophen-yl)methanesulfonyl]-2-{6-[4-(3-methoxyazetidine-1-carbonyl)phenyl]-1,3-benzothiazol-2-yl}-N-(2-sulfamoylethyl)acetamide] | 7.2 nM | 52 nM
20 | NS(=O)(=O)CCNC(=O)C(c1nc2ccc(-c3ccc4c(c3)CNC4=O)cc2s1)S(=O)(=O)Cc1ccc(OC(F)(F)F)cc1 (stereo not shown) [Example B303, 2-[6-(1-oxo-2,3-dihydro-1H-isoindol-5-yl)-1,3-benzothiazol-2-yl]-N-(2-sulfamoylethyl)-2-{[4-(trifluoromethoxy)phen-yl]methanesulfonyl)a-cetamide] | 2.5 nM | 51.2 nM
21 | CO[C@H]1CCN(C(=O)c2ccc(-c3ccc4nc(C(C(=O)NCCS(N)(=O)=O)S(=O)(=O)CCC(F)(F)F)sc4c3)cc2)C1 (stereo partly drawn) [Example B304, 2-(6-{4-[(3S)-3-methoxy-pyrrolidine-1-carbonyl]phen-yl}-1,3-benzothiazol-2-yl)-N-(2-sulfamoyl-ethyl)-2-(3,3,3-trifluoro-propanesulfonyl)acetamide] | 0.7 nM | 16.6 nM
22 | CS(=O)(=O)C(C(=O)NCCS(N)(=O)=O)c1nc2ccc(-c3ccccc3F)cc2s1 (stereo not shown) [Example B305, 2-[6-(2-fluorophenyl)-1,3-benzothiazol-2-yl]-2-methanesulfonyl-N-(2-sulfamoylethyl)acetamide] | 3 nM | 1 nM
23 | COCCS(=O)(=O)C(C(=O)NCCS(N)(=O)=O)c1nc2ccc(-c3ccc(C(=O)N4CC[C@H](OC)C4)cc3)cc2s1 (stereo partly drawn) [Example B306, 2-(2-methoxyethane-sulfonyl)-2-(6-{4-[(3S)-3-methoxypyrrolidine-1-carbonyl]phenyl}-1,3-benzothiazol-2-yl)-N-(2-sulfamoylethyl)acetamide] | 3.8 nM | 149 nM
24 | COCCS(=O)(=O)C(C(=O)NCCS(N)(=O)=O)c1nc2cc(-c3ccc(F)nc3)ccc2s1 (stereo not shown) [Example B308, 2-[5-(6-fluoropyridin-3-yl)-1,3-benzothiazol-2-yl]-2-(2-methoxyethane-sulfonyl)-N-(2-sulfamoylethyl)acetamide] | 1.3 nM | 194 nM
25 | NS(=O)(=O)CCNC(=O)C(c1nc2cc(-c3ccc(F)nc3)ccc2s1)S(=O)(=O)Cc1ccc(OC(F)(F)F)cc1 (stereo not shown) [Example B309, 2-[5-(6-fluoropyridin-3-yl)-1,3-benzothiazol-2-yl]-N-(2-sulfamoylethyl)-2-{[4-(trifluoromethoxy)phen-yl]methanesulfonyl}a-cetamide] | 0.5 nM | 67 nM
26 | NS(=O)(=O)CCNC(=O)C(c1nc2cc(-c3ccc(F)nc3)ccc2s1)S(=O)(=O)Cc1ccc(F)cc1 (stereo not shown) [Example B310, 2-[(4-fluorophenyl)meth-anesulfonyl]-2-[5-(6-fluoropyridin-3-yl)-1,3-benzothiazol-2-yl]-N-(2-sulfamoylethyl)acetamide] | 1 nM | 51.4 nM
